Experimental data taken from BindingDB's records for patent US20230295119 (Gossamer Bio Services, 2023).

Key:
[1] = target: Tyrosine-protein kinase JAK1 (Homo sapiens, UniProt P23458); assay: JAK1, JAK2, and JAK3 Activity
Method: (§1) Compounds described herein were tested for the ability to inhibit activity of human JAK1, JAK2 and JAK3, which was achieved using TR-FRET assays. Briefly, the Kinases JAK1 (2.5 nM), JAK2 (0.025 nM) and JAK3 (0.0125 nM) were incubated with a series of concentrations of the test compound in the presence of […] (biotin-ahx- […]-CONH2), 2 nM Eu-labeled anti-pTYRPY20 and 80 nM Streptavidin APC. After 30 min incubation at RT, ATP ([…] respectively for JAK1, JAK2 and JAK3) was added to start the reaction, and incubated for 80 min at RT. The reaction was stopped by adding detection buffer and incubated for a further 60 min at RT. The samples were analyzed using Envision to calculate % inhibition at each of the series of concentrations of the test compound. The IC50 value of the compounds for each of the kinases were calculated using XLFit software.

[2] = target: Tyrosine-protein kinase JAK2 (Homo sapiens, UniProt O60674); assay: JAK1, JAK2, and JAK3 Activity
Sequence of Tyrosine-protein kinase JAK2 (O60674 whole entry): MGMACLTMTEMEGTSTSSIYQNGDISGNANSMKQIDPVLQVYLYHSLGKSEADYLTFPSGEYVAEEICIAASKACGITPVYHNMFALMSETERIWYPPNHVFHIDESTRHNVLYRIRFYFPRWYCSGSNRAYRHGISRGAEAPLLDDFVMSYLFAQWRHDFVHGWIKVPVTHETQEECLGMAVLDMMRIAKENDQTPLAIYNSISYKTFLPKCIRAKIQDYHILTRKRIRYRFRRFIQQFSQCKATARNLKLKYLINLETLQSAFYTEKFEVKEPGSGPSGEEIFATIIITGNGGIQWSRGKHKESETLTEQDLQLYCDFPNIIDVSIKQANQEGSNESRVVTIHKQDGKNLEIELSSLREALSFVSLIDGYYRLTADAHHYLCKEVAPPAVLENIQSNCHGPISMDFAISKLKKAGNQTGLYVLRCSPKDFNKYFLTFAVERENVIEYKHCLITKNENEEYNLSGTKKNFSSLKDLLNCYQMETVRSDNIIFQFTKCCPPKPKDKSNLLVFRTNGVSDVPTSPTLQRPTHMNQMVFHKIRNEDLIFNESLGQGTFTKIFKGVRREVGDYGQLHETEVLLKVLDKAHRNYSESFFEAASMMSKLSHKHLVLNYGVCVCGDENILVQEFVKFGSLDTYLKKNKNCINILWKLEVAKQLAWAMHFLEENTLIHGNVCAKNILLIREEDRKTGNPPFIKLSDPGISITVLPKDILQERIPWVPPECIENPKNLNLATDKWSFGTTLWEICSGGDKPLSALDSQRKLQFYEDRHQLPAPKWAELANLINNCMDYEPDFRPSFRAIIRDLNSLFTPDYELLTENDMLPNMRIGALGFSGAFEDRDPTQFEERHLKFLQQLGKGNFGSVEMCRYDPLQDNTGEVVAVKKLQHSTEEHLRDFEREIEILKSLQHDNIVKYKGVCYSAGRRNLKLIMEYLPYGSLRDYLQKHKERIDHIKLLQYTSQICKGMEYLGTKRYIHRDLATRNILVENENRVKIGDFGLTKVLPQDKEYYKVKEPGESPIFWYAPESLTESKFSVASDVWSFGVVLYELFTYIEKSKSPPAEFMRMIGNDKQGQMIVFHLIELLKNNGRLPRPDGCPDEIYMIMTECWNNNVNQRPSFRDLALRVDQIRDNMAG
Method: as §1

[3] = target: T1, Tyrosine-protein kinase JAK3 (Homo sapiens, UniProt P52333); assay: JAK1, JAK2, and JAK3 Activity
T1 sequence (P52333 whole entry): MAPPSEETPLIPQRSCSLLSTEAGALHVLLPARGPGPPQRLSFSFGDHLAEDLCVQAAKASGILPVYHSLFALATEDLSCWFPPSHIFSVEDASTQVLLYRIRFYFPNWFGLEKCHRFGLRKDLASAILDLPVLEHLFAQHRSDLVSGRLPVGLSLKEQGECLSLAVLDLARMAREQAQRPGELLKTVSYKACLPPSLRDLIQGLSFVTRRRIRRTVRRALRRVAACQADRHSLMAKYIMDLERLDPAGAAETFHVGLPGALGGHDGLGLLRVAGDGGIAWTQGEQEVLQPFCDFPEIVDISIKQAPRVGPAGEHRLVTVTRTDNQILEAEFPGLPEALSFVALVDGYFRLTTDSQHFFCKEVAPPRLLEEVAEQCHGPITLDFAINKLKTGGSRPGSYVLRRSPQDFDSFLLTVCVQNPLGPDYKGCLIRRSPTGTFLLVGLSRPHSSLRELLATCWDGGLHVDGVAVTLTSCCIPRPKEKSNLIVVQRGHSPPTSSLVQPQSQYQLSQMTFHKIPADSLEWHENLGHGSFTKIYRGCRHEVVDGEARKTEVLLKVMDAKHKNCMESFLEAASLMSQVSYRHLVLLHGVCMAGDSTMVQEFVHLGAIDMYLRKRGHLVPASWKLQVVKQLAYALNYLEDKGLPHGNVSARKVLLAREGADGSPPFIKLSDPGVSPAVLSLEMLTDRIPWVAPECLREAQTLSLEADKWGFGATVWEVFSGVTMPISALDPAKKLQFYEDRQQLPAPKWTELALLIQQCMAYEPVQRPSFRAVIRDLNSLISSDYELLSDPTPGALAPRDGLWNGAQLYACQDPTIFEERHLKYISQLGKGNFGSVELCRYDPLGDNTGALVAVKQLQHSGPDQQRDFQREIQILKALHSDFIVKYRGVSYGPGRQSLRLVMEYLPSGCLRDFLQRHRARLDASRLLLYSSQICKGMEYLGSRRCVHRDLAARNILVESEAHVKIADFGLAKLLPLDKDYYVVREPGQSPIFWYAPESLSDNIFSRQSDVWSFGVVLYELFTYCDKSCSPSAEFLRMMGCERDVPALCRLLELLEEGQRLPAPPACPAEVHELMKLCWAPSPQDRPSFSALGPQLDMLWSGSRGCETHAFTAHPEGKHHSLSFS
Method: as §1

[4] = JAK1, JAK2, and JAK3 Activity

Sequence of Tyrosine-protein kinase JAK1 (P23458 whole entry): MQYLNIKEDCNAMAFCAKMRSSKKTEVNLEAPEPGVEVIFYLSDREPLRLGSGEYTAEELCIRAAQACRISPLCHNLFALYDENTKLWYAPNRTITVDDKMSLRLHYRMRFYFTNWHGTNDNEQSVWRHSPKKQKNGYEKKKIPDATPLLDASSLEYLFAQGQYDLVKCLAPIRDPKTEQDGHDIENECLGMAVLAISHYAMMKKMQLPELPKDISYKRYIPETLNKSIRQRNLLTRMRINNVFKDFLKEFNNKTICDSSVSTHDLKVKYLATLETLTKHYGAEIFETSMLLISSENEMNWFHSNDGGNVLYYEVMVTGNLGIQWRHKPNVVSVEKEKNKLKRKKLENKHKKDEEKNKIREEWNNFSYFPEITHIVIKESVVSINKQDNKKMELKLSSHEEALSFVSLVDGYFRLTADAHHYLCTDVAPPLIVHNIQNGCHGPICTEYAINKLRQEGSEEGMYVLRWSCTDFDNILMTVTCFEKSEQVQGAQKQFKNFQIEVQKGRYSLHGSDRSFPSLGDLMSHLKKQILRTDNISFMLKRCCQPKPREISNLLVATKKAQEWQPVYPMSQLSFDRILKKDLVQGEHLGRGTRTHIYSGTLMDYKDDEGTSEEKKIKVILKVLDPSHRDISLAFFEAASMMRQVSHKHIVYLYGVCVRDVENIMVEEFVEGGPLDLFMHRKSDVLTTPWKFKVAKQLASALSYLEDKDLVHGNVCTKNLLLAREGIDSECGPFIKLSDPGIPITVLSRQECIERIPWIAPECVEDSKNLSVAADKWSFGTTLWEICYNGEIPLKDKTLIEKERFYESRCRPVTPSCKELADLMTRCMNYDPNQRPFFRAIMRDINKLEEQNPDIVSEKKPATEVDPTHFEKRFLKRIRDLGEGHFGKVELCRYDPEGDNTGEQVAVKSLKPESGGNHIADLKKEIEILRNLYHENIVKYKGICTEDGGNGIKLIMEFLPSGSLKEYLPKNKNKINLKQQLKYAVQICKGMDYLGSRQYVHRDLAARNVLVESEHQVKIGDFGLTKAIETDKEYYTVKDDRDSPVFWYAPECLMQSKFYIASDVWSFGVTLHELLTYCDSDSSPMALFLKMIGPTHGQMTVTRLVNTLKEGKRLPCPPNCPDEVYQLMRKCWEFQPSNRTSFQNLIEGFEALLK

Row | IC50 [1] [nM] | IC50 [2] [nM] | IC50 [3] [nM] | IC50 [4] [nM] | SMILES
1 | > 500 | > 500 | > 500 | < 5 | CCC(=O)c1cnc(Nc2cnc(OCCN3CCN(C)CC3)cn2)cc1Nc1cccc(-c2ncn(C)n2)c1OC [US20230295119, Compound 18FFF]
2 | > 500 | > 500 | > 500 | – | CCC(=O)c1cnc(Nc2cnc(O[C@@H]3CCN(CC)C3)cn2)cc1Nc1cccc(-c2ncn(C)n2)c1OC [US20230295119, Compound 18DDD]
3 | > 500 | – | > 500 | < 5 | CCC(=O)c1cnc(Nc2cc(C(C)NC)ncn2)cc1Nc1cccc(-c2ncn(C)n2)c1OC (configuration not stated) [US20230295119, Compound 9PPPP]
4 | > 500 | – | > 500 | – | CCC(=O)c1cnc(Nc2ccc(CN3CCN(C)CC3)nn2)cc1Nc1cccc(-c2ncn(C)n2)c1OC [US20230295119, Compound 9PPP]
